The values that follow come from article PMC12039745, “Structure and inhibition of diaminopimelic acid epimerase by slow‐binding α‐methyl amino acids” (Protein Science : A Publication of the Protein Society, 2025).

For data set [1], the target named is T1, DAP epimerase (DapF) (Arabidopsis thaliana, UniProt Q9LFG2).
T1 sequence (Q9LFG2 52-362): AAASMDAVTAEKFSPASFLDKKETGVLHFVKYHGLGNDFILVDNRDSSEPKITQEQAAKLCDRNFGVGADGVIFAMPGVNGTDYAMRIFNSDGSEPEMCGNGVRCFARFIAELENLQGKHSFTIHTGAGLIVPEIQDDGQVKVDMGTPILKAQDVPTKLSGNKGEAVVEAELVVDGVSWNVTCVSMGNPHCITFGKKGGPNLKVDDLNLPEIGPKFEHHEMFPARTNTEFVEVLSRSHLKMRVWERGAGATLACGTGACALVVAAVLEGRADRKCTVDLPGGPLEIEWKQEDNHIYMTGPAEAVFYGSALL
Put plainly: DAP dehydrogenase-coupled assay at […] inhibitor, time-dependent pre-incubation. Type of data set: biochemical.

Data set [2] concerns the target T2, DAP epimerase (DapF).
T2 construct: C-terminal hexahistidine tag
Put plainly: DAP dehydrogenase-coupled assay, […] h pre-incubation, slow-binding. Type of data set: biochemical, Anabaena sp. YBS01.

Data set [3] concerns the target T2, DAP epimerase (DapF). The experiment in a line: X-ray crystal structure ([…] Å); DAP dehydrogenase-coupled inhibition assay after […] h incubation. Type of data set: biochemical, Anabaena sp. YBS01.
Substrate in the data set “purified protein”: N[C@@H](CCC[C@H](N)C(=O)O)C(=O)O
Put plainly: purified protein.

As a reminder, the IC50 is the concentration that inhibits the measured activity by half. Low readings indicate greater potency, high ones weaker potency. Turning to `C[C@](N)(CCC[C@H](N)C(=O)O)C(=O)O` [L,L-α-methylDAP], on DAP epimerase (DapF) [1], the “DAP dehydrogenase-coupled assay at 250 μM inhibitor, time-dependent pre-incubati” value was “A. thaliana DapF behaved similarly to Anabaena DapF and activity decreased with increasing length of pre‐incubation”. This molecule gave a 50% inhibitory concentration (IC50) at DAP epimerase (DapF) [2] of 120 µM.
Consider `C[C@@](N)(CCC[C@H](N)C(=O)O)C(=O)O` [D,L-α-methylDAP, (2R,6S)‐2,6‐diamino‐2‐methylheptanedioic acid], for which the “DAP dehydrogenase-coupled assay at 250 μM inhibitor, time-dependent pre-incubati” value on DAP epimerase (DapF) [1] was “A. thaliana DapF behaved similarly to Anabaena DapF and activity decreased with increasing length of pre‐incubation”. The molecule further yielded an IC50 against DAP epimerase (DapF) [3] of 160 µM.

B1: DAP epimerase (DapF) (Arabidopsis thaliana) (protein)
chain: T1 sequence (Q9LFG2 52-362)
By Km is commonly meant the substrate concentration at which the rate is half of its maximum. In the case of B1, in the data set “purified protein”, the Michaelis constant (Km) came out at 68 µM.
